Data on 13 compounds can be found in ChEMBL document CHEMBL1136737, “Virtual screening for submicromolar leads of tRNA-guanine transglycosylase based on a new unexpected binding mode detected by crystal structure analysis” (J Med Chem, 2003).

In general, Ki refers to a dissociation constant, usually derived from enzyme kinetics or from competition with a known ligand. A lower Ki goes with a stronger hold on the target.

Sequence of Queuine tRNA-ribosyltransferase (P28720 whole entry): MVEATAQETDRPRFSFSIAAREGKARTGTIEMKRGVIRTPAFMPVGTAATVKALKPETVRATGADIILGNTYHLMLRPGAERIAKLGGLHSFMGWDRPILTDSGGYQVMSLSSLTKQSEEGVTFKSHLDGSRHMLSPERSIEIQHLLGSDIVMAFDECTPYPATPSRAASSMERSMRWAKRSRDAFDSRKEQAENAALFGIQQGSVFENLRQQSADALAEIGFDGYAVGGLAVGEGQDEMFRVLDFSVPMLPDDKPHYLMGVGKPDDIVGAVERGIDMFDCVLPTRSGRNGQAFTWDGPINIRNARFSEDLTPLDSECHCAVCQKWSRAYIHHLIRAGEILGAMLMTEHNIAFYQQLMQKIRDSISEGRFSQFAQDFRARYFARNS

The assay has as its target Queuine tRNA-ribosyltransferase (Zymomonas mobilis (strain ATCC 31821 / ZM4 / CP4), UniProt P28720). The assay can be described thus: Inhibitory activity against eubacterial tRNA guanine transglycosylase (TGT) from Zymomonas mobilis.
`NNC(=O)c1cc2cc(F)ccc2[nH]1` gave an inhibition constant (Ki) of 72 µM.

`Cc1ccc2[nH]c3nnc(N)c-3cc2c1` came in with a Ki of 156 µM.

As to `Nc1[nH]nc2nc(-c3ccccc3)[nH]c(=O)c12`, the inhibition constant Ki turned out to be 249 µM.

On to `Cc1cnc2nc(N)nc(O)c2n1`, for which the affinity, expressed as Ki, was 0.25 µM.

Regarding `Nc1cccc2c(=O)[nH][nH]c(=O)c12`, the Ki turned out to be 36 µM.

Compound `O=c1[nH][nH]c(=O)c2[nH]cnc12` registered a Ki of 200 µM.

Compound `Nc1nc2nccnc2c(=O)[nH]1` [PTERINE] had a Ki of 0.6 µM. Against the preceding compound, the Ki is about 330-fold lower.

With `O=c1[nH][nH]c(=O)c2c(O)c3sccc3nc12`, the inhibition constant (Ki) was found to be 5 µM.

Turning to `Cc1csc2c(O)c3c(=O)[nH][nH]c(=O)c3nc12`, the Ki is 4.7 µM.

`Nc1c2c(O)nc(O)cc2nn1CCO` registered a Ki of 8.1 µM.

`Nc1nc(O)c2[nH]c(N3CCCCC3)nc2n1` showed an inhibition constant (Ki) of 37 µM.

Compound `Nc1nc2nc(-c3ccccc3)cnc2c(=O)[nH]1` yielded an inhibitory constant (Ki) of 3.8 µM.

In turn, `Nc1nc(O)c2[nH]c(SCc3ccc(Cl)cc3)nc2n1` showed a Ki of 2.7 µM.
